Columns and labels:
[1] = target: T1, serotoninergic 5-HT2A receptor (Homo sapiens, UniProt P28223); assay: Cellular functional assay, serotoninergic 5-HT2A receptor (agonism/antagonism); type: cell-based; settings: for activation at 1 µM: read-out: 5-HT2A -ag [%]; for inhibition at 1 µM: read-out: 5-HT2A -antag [%]
Procedure, shortened: (§1)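 Human receptors tested in cell-based functional format for both agonist and antagonist modes. Single compound concentration of 1×10^−6M.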

dopaminergic D2 receptor [2] = target: T2, dopaminergic D2 receptor (Homo sapiens, UniProt P14416); assay: Binding assay D2S (h), [3H]methyl-spiperone, HEK-293 cells; parameters: expressed in transfected cells; host or cells: HEK-293 cells; settings: read-out: D2 [%]
Procedure, shortened: (§2)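 Radioligand displacement with compounds at 1×10^−6 M, detected by scintillation counting. Specific binding taken as total minus non-specific binding measured with excess unlabelled ligand.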
Target sequence in this assay (P14416 1-414 isoform P14416-2): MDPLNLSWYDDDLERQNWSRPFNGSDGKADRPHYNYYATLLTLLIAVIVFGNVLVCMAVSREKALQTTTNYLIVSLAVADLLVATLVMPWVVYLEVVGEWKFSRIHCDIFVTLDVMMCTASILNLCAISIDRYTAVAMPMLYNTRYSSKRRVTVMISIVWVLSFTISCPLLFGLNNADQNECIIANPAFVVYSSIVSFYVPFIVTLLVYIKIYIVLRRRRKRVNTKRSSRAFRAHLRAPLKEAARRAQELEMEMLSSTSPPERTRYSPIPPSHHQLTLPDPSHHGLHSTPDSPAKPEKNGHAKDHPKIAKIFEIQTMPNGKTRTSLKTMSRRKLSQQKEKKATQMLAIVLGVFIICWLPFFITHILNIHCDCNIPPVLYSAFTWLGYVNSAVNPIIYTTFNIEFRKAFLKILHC

muscarinic M3 receptor = target: T3, muscarinic M3 receptor (Homo sapiens, UniProt P20309); assay: Binding assay M3 (h), [3H]4-DAMP, CHO cells; settings: read-out: M3 [%]
T3 construct: expressed in transfected cells; host or cells: CHO cells
Procedure, shortened: as §2

dopaminergic D3 receptor = dopaminergic D3 receptor (Homo sapiens, UniProt P35462); assay: Cellular functional assay, dopaminergic D3 receptor (agonism/antagonism); type: cell-based; settings: for inhibition at 1 µM: CHO, read-out: D3-antag. [%]; for activation at 1 µM: agonist effect, percent of control specific agonist response (300 nM dopamine for control), 1×10^−6 M, D3 (h), CHO cells, read-out: D3-ag [%]
Method: (§3) The compounds were tested at the concentration of 1×10^−6M.
(§4) In the Tables ag refers to agonism, and antag to antagonism).

adrenergic α2C receptor = target: T4, adrenergic α2C receptor (Homo sapiens, UniProt P18825); assay: Binding assay α2C (h), [3H]RX 821002, CHO cells; parameters: expressed in transfected cells; host or cells: CHO cells; settings: read-out: α2C [%]
T4 sequence (P18825 1-462): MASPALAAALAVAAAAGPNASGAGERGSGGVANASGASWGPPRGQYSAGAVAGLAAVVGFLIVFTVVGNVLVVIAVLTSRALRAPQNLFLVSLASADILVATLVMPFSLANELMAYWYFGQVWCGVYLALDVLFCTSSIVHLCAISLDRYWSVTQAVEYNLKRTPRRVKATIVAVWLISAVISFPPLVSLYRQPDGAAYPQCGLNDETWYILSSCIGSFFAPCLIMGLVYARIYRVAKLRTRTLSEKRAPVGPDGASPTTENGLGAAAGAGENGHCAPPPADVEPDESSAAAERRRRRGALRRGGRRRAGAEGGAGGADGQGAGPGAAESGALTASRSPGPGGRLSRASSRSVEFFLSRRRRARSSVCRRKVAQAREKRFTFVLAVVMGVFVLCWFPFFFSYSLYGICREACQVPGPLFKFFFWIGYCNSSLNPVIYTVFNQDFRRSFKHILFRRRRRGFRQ
Procedure, shortened: as §2

[3] = target: T5, serotoninergic 5-HT7 receptor (Homo sapiens, UniProt P34969); assay: Cellular functional assay, serotoninergic 5-HT7 receptor (agonism/antagonism); type: cell-based; settings: for activation at 1 µM: agonist effect, percent of control specific agonist response, compounds tested at 1×10^−6M, read-out: 5-HT7-ag [%]; for inhibition at 1 µM: read-out: 5-HT7-antag. [%]
Method: as §3, §4

[4] = target: T1, serotoninergic 5-HT2A receptor; assay: Binding assay 5-HT2A (h), [3H]ketanserin, HEK-293 cells; parameters: expressed in transfected cells; host or cells: HEK-293 cells; settings: read-out: 5-HT2A
Procedure, shortened: as §2

sigma σ receptor = assay: Binding assay σ (non-selective), [3H]DTG, rat cerebral cortex; settings: percent inhibition of control specific binding; compounds tested at 1×10^−6 M
Procedure, shortened: as §2

[5] = target: T5, serotoninergic 5-HT7 receptor; assay: Binding assay 5-HT7 (h), [3H]LSD, CHO cells; parameters: expressed in transfected cells; host or cells: CHO cells; settings: read-out: 5-HT7
Procedure, shortened: as §2

dopaminergic D2 receptor [6] = target: T2, dopaminergic D2 receptor; assay: Cellular functional assay, dopaminergic D2 receptor (agonism/antagonism); type: cell-based; settings: HEK293; for activation at 1 µM: agonist effect, percent of control specific agonist response (3 μM dopamine for control), 1×10^−6 M, D2S (h), HEK-293 cells, read-out: D2-ag [%]; for inhibition at 1 µM: read-out: D2-antag. [%]
Method: as §3, §4
Target sequence in this assay (P14416 whole entry): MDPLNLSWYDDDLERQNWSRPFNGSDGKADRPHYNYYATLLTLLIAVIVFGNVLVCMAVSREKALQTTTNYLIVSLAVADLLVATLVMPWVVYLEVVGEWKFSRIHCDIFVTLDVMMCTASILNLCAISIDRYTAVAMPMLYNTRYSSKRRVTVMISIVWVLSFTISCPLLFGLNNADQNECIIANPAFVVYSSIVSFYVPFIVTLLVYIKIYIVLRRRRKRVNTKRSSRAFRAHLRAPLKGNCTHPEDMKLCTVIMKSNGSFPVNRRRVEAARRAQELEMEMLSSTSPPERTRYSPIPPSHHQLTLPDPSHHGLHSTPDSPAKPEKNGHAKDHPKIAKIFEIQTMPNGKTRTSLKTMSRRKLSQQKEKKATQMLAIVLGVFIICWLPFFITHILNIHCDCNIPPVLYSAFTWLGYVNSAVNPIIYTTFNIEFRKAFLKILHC

adrenergic α1A receptor = target: T6, adrenergic α1A receptor (Homo sapiens, UniProt P35348); assay: Cellular functional assay, adrenergic α1A receptor (agonism/antagonism); type: cell-based; settings: for activation at 1 µM: agonist effect, percent of control specific agonist response, compounds tested at 1×10^−6M, read-out: α1A -ag [%]; for inhibition at 1 µM: read-out: α1A -antag. [%]
T6 sequence (P35348 1-466): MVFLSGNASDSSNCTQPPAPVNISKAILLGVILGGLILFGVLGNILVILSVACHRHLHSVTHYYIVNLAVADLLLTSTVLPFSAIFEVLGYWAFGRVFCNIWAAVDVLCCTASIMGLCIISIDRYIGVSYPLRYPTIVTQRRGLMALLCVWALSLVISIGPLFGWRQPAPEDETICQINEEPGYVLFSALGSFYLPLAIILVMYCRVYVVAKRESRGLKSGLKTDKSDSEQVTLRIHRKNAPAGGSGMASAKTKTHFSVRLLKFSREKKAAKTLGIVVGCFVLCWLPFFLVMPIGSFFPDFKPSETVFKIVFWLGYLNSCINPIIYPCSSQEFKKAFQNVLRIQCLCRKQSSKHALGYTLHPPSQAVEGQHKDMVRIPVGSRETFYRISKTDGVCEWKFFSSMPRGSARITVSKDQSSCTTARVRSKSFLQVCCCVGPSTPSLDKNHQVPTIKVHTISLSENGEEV
Procedure, shortened: as §1

adrenergic α1 receptor = assay: Binding assay α1 (non-selective), [3H]prazosin, rat cerebral cortex; settings: percent inhibition of control specific binding; compounds tested at 1×10^−6 M
Procedure, shortened: as §2

[7] = target: histaminergic H1 receptor (Homo sapiens, UniProt P35367); assay: Binding assay H1 (h), [3H]pyrilamine, HEK-293 cells; parameters: expressed in transfected cells; host or cells: HEK-293 cells; settings: read-out: H1 [%]
Procedure, shortened: as §2

[8] = target: T7, serotonine transporter (SERT) receptor (Homo sapiens, UniProt P31645); assay: Binding assay SERT (h), [3H]imipramine, CHO cells; settings: read-out: SERT [%]
T7 construct: expressed in transfected cells; host or cells: CHO cells
Procedure, shortened: as §2

dopaminergic D3 receptor, sequence (P35462 whole entry): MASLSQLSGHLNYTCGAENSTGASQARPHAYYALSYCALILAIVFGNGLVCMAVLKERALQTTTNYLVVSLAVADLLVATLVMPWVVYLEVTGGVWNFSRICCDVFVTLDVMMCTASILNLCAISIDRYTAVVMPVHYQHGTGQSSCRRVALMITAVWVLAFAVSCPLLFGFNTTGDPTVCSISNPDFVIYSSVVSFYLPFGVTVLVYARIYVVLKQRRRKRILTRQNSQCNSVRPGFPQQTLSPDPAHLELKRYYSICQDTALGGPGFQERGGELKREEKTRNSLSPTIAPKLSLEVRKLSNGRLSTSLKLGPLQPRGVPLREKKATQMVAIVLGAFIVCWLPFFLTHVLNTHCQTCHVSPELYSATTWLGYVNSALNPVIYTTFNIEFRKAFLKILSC
histaminergic H1 receptor, sequence (P35367 whole entry): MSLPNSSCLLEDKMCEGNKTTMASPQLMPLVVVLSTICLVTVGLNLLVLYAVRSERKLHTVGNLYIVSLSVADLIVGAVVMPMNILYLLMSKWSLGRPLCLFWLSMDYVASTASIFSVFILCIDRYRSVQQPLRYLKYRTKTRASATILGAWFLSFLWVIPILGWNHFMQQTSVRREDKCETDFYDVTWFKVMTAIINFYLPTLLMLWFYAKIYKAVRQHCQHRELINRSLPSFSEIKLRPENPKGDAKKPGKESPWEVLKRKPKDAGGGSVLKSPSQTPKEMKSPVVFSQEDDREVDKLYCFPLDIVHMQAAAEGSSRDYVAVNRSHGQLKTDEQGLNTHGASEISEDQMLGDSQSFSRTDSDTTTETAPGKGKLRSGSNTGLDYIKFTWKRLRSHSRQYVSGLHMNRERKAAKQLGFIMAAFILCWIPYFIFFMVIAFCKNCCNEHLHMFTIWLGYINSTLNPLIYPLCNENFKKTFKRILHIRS
T3 sequence (P20309 whole entry): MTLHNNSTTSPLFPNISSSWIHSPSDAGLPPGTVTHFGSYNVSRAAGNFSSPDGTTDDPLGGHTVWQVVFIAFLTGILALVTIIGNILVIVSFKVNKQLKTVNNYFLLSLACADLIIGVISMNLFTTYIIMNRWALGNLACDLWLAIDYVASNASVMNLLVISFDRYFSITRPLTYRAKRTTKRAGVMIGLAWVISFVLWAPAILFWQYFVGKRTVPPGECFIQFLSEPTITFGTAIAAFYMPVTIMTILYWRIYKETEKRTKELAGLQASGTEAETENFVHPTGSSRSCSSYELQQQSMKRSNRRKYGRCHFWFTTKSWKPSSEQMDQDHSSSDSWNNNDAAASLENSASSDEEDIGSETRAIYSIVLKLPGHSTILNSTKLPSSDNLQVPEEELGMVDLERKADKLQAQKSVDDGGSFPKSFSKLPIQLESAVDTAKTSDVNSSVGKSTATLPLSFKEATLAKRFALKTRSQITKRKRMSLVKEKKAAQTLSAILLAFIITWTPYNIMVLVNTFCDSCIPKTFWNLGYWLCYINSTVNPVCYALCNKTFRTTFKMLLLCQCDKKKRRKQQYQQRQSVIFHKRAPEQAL
T7 sequence (P31645 whole entry): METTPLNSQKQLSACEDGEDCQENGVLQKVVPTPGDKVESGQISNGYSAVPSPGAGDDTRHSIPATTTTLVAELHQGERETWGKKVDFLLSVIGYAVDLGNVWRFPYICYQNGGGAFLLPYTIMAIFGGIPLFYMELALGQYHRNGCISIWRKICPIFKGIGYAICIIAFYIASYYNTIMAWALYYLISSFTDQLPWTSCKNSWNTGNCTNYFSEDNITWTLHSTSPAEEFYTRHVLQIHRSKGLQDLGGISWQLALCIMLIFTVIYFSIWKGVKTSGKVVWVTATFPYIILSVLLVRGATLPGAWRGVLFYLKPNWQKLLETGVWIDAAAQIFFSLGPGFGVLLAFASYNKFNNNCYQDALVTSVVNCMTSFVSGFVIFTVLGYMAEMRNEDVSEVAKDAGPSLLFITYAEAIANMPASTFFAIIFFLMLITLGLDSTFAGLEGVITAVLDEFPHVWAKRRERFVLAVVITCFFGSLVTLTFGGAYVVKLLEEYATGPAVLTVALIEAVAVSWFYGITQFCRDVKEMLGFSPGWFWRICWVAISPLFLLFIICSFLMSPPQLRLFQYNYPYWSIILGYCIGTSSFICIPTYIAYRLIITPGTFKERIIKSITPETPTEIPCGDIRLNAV
T1 sequence (P28223 whole entry): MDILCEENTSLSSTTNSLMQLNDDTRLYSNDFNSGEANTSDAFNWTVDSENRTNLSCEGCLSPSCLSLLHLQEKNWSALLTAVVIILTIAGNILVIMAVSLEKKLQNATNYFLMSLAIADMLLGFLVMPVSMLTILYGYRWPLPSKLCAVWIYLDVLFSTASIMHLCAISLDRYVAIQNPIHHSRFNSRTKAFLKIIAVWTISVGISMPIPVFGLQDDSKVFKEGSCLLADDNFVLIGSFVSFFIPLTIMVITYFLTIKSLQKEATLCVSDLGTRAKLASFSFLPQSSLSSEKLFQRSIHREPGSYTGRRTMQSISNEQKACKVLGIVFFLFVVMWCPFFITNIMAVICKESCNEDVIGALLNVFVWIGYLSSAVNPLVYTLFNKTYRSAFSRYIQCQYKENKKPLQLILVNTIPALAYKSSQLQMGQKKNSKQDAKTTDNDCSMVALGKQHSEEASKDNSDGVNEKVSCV
T5 sequence (P34969 whole entry): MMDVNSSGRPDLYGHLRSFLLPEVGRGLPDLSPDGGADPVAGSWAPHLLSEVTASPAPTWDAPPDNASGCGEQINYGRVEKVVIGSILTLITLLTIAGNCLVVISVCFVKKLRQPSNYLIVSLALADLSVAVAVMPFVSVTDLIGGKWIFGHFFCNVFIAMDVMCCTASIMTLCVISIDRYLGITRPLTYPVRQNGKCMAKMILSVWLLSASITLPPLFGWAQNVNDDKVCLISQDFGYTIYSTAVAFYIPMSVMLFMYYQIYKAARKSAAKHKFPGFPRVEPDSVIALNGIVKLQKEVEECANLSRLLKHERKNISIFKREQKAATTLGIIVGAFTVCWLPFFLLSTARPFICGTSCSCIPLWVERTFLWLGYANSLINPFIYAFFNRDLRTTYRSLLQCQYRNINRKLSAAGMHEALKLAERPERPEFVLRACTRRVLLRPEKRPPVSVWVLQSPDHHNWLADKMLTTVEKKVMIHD

Row | SMILES | activation at 1 µM [1] | inhibition at 1 µM [1] | inhibition at 1 µM (dopaminergic D2 receptor [2]) | inhibition at 1 µM (muscarinic M3 receptor) | inhibition at 1 µM (dopaminergic D3 receptor) | activation at 1 µM (dopaminergic D3 receptor) | inhibition at 1 µM (adrenergic α2C receptor) | activation at 1 µM [3] | inhibition at 1 µM [3] | inhibition at 1 µM [4] | σ [%] (sigma σ receptor) | inhibition at 1 µM [5] | activation at 1 µM (dopaminergic D2 receptor [6]) | inhibition at 1 µM (dopaminergic D2 receptor [6]) | activation at 1 µM (adrenergic α1A receptor) | inhibition at 1 µM (adrenergic α1A receptor) | α1 [%] (adrenergic α1 receptor) | inhibition at 1 µM [7] | inhibition at 1 µM [8]
1 | Cc1cccc(S(=O)(=O)NCCCN2CCC(c3noc4cc(F)ccc34)CC2)c1 [Compound 22, N-[3-[4-(6-Fluoro-1,2-benzoxazol-3-yl)piperidin-1-yl]propyl]-3-methylbenzenesulphonamide] | -1% | 102% | 96% | 12% | 81% | -25% | 100% | -1% | 100% | 99% | 92% | 99% | 2% | 99% | 0% | 100% | 100% | 88% | 44%
2 | O=S(=O)(NCCCCN1CCN(c2cccc3[nH]ccc23)CC1)c1ccc2ccccc2c1 [Compound 26, N-{4-[4-(1H-Indol-4-yl)piperazin-1-yl]butyl}naphthalene-2-sulphonamide] | -1% | 77% | 97% | 17% | -8% | 64% | 100% | 14% | 13% | 98% | 99% | 98% | 29% | 99% | 0% | 100% | 98% | 52% | 14%
3 | O=S(=O)(NCCCCN1CCN(c2cccc3[nH]ccc23)CC1)c1cc2ccccc2s1 [Compound 33, N-{4-[4-(1H-Indol-4-yl)piperazin-1-yl]butyl}-1-benzothiophene-2-sulphonamide] | -1% | 41% | 97% | 5% | -1% | 60% | 100% | 19% | 20% | 95% | 94% | 99% | 37% | 98% | 0% | 100% | 100% | 56% | -4%
4 | O=S(=O)(NCCCCN1CCN(c2nsc3ccccc23)CC1)c1ccc2cc(Cl)ccc2c1 [Compound 61, N-[4-[4-(1,2-Benzothiazol-3-yl)piperazin-1-yl]butyl]-6-chloro-naphthalene-2-sulphonamide] | 0% | 97% | 100% | 5% | 45% | 4% | 101% | -1% | 78% | 100% | 46% | 100% | 4% | 77% | 0% | 100% | 94% | 97% | 55%

Reference: patent publication US8822517B2, “Arylosulfonamides for the treatment of CNS diseases” (Adamed SP. Z O.O., priority 2010, dated 2014)
